The test system of the test is cucumber powdery mildew. Kind of test: Evaluation test for cucumber powdery mildew (cucumber leaf disc, lesion area after 14 days). The note with it: 500 ppm in acetone; cucumber leaf disc sprayed with spore suspension; 25° C., 12 hours illumination; lesion area after 14 days vs untreated section. The format is in vivo. The method, then:
Each of the fluorine-containing pyrimidine compounds prepared in Examples 32 and 36 was dissolved in acetone and diluted to a concentration of 500 ppm. Subsequently, a cucumber leaf disc (20 mm in diameter) was put into the diluted acetone solution and completely wetted, and then the cucumber leaf disc was placed so that the back surface of the cucumber leaf disc was in contact with a plain agar medium that had been prepared separately, and air-dried. After air-drying, a spore suspension of the cucumber powdery mildew was uniformly sprayed on the cucumber leaf disc and air-dried. The cucumber leaf disc was then left in a thermostat (25° C., 12 hours illumination), and after 14 days, the area of lesions was examined to calculate the control value. Note that the control value was calculated according to the following formula. In the following formula, “untreated” means that a cucumber leaf disc was wetted with only acetone as a test solution, and “untreated section” means a section of the wetted cucumber leaf disc. [formula]

Compound `Cc1ccc(Nc2nc(-c3ccccn3)nc(Cl)c2C(F)(F)F)cc1` [Example 32, 6-chloro-N-(4-methylphenyl)-2-(2-pyridyl)-5-(trifluoromethyl)-4-pyrimidinamine] gave a Control value of 57.1. `Cc1ccc(Nc2nc(-c3cccnc3)nc(Cl)c2C(F)(F)F)cc1` [Example 36, 6-chloro-N-(4-methylphenyl)-2-(3-pyridyl)-5-(trifluoromethyl)-4-pyrimidinamine] showed a Control value of 67.9.

The record behind these values is patent publication US12448362B2, “Fluorine-containing pyrimidine compound and fluorine-containing pyrimidinone compound” (UNIMATEC CO., LTD., priority 2020, dated 2025).
